Test results: patent publication US8557776B2, “Compounds and methods for 18F labeled agents” (Bayer Pharma AG, priority 2006, dated 2013)
*1 amine or outer side, *2 acyl side, *3 side chain or, on linkers, in order; H or OH if unused. Where a SMILES comes first, the peptide text is derived from it. [ ]: non-standard residue; d: D form. The star is where a group is joined. γ4hIle = CC[C@H](C)[C@@H](CCC(=O)[*:2])N[*:1]; Benzoyl(3-CN,4-F) = N#Cc1cc(C(=O)*)ccc1F; Ava = NCCCCC(=O)O

What was measured:
[1] = system: human prostate cancer PC-3; assay: Biodistribution of F-18-Bombesin Analog in nude mice bearing human prostate cancer PC-3; type: in vivo
Method: Nude mice bearing human prostate cancer PC-3 were injected with 100 μl radioactive peptide dissolved in PBS containing 135 kBq per animal. For blocking 100 μg unlabeled gastrin-releasing peptide was co-injected. One hour post injection the animals were sacrificed and organs dissected for counting in a gamma-counter. Values are expressed as percent of the injected dose per gram organ weight.

Molecule	Panc. % (Table 1)	Tumor/Tissue-Ratios T/Blood ([1]; 1 h Blocking: 100 μg unlabeled gastrin-releasing peptide co-injected)	Tumor/Tissue-Ratios T/Blood ([1]; 1 h post injection)	tumor-tissue ratio relative to that of 18F-choline (FCH) and 18F-FB-Lys-BN ([1]; FIG. 8, protocol as above)	accumulation in tumor (in words) ([1]; PC-3 tumor, 1 h post injection)	specificity of targeting (in words) ([1]; blocking values low in tumor on co-injection of gastrin-releasing peptide)
3-CF3,4-F-Benzoyl-Arg-Ava-Gln-Trp-Ala-Val-NMeGly-His-Sta-Leu-NH2 (SEQ ID NO: 421) (RXQWAVGHXL; 3-CF3,4-F-benzoyl N-cap, Ava, NMeGly, Sta, C-amide)	1,42%	–	–	–	–	–
CC[C@H](C)[C@@H](CCC(=O)N[C@@H](CC(C)C)C(N)=O)NC(=O)[C@H](Cc1c[nH]cn1)NC(=O)CNC(=O)[C@@H](NC(=O)[C@H](C)NC(=O)[C@H](Cc1c[nH]c2ccccc12)NC(=O)[C@H](CCC(N)=O)NC(=O)CCCCNC(=O)c1ccc(F)c(C#N)c1)C(C)C [F-18-Bombesin Analog] ({Benzoyl(3-CN,4-F)-Ava}-QWAVGH[γ4hIle]L-NH2; N-terminus assumed)	–	1.57 ± 0.22	21.03 ± 11.92	2.5 time higher	accumulates in tumor	specific
